Results reported in patent publication US10780101B2, “Amide derivatives of squalamine for the treatment of infections” (VIRBAC, priority 2016, dated 2020).
≈ marks a conversion by molar mass, not a printed value.

How the values were obtained:
[1] = tested on: E. coli Animal (1956); test: MIC determination, E. coli animal (1956); format: cell-based; details: Escherichia coli; Gram-negative; Mueller-Hinton medium, 24 h at 37° C.
Protocol: (§1) A negative control (2 mL of sterile culture medium)
(§2) A positive control (1940 μL of culture medium+40 μL of DMSO+20 μL of the bacterial suspension) from a thawed biological strain (the biological strains are stored at −80° C. in glycerol).
(§3) The tubes were incubated at 37° C. for 24 hours at 100 rpm.
(§4) The microorganisms were handled under a type L2 laboratory fume cupboard and, before any handling, a UV cycle was programmed and only sterile material was used. […] The chemical compounds to be tested were prepared in a DMSO/methanol mixture (50/50) at a concentration of 5 mg/mL.
(§5) After 24 hours of incubation, a measurement of the optical density was taken using a spectrophotometer at 600 nm, collecting 100 μL of the bacterial suspension diluted in 900 μL of the sterile culture medium. This test required the use of a 96-well plate and the required volume of the microbial suspension to be seeded was calculated for an OD corresponding to a value equal to 0.01 in each well. In this plate, the first line corresponded to the negative control (195 μL of sterile culture medium in each well), the second line corresponded to the positive control (seeded culture medium supplemented with 2% of DMSO), and the third line was loaded twice with bacterial suspension; 8 μL of test product were placed in each well. Thereafter, a 0.5 cascade dilution was performed from this line.
(§6) The first column served as inhibition control. A sterile filter was then placed on the microplate, allowing the passage of gases but not of contaminants. The microplate was incubated at 37° C. under a humid atmosphere for 24 hours.
(§7) NB: The medium used is Mueller-Hinton (MH) medium for bacteria. All the tests were performed in duplicate.
(§8) After incubation, the filter was replaced with a transparent film, and an OD reading was then taken in an iEMS plate spectrophotometer at 620 nm. Calculation of the minimum inhibitory concentration (MIC) was performed.

[2] = tested on: S. aureus Human ATCC 25923; test: MIC determination, S. aureus human ATCC 25923; format: cell-based; details: Staphylococcus aureus, ATCC25923; Gram-positive; Mueller-Hinton medium, 24 h at 37° C.
Protocol: as §1, §2, §3, §4, §5, §6, §7, §8

[3] = tested on: S. intermedius Animal (1051997); test: MIC determination, S. intermedius animal (1051997); format: cell-based; details: Staphylococcus intermedius; Gram-positive; Mueller-Hinton medium, 24 h at 37° C.
Protocol: as §1, §2, §3, §4, §5, §6, §7, §8

[4] = tested on: E. coli Human ATCC 28922; test: MIC determination, E. coli human ATCC 28922; format: cell-based; details: Escherichia coli, ATCC28922; Gram-negative; Mueller-Hinton medium, 24 h at 37° C.
Protocol: as §1, §2, §3, §4, §5, §6, §7, §8

[5] = tested on: E. faecalis Human ATCC 29212; test: MIC determination, E. faecalis human ATCC 29212; format: cell-based; details: Enterococcus faecalis, ATCC29212; Gram-positive; Mueller-Hinton medium, 24 h at 37° C.
Protocol: as §1, §2, §3, §4, §5, §6, §7, §8

[6] = tested on: P. aeruginosa (1051575); test: Potentiation of doxycycline activity (combination MIC); format: cell-based, Pseudomonas aeruginosa; details: for MIC - P. aeruginosa (1051575): content of compound of formula (I) to restore the doxycycline activity (at 2 μg/mL): in presence of doxycycline 2 μg/mL, 24 hours at 37° C.
[7] = tested on: CHO-K1 cells; test: WST1 cytotoxicity test on CHO-K1 cells; format: cell-based, Chinese hamster; details: Cricetulus griseus, CHO-K1, 24 h, read-out: IC50 (μg/mL) CHO
Protocol: Test WST1 was used to measure the cytotoxic activity of the products. This is a colorimetric test which makes it possible to measure the viability and the degree of cell proliferation. It is based on cleavage of the colorless tetrazolium salts WST-1 (4-[3-(4-iodophenyl)-2-(4-nitrophenyl)-2H-5-tetrazolio]-1,3-benzene disulfonate) with mitochondrial dehydrogenases to the yellow-colored formazan derivative, which may be quantified by spectrophotometry at 420-480 nm.
The WST1 test was performed on Chinese hamster ovary cells. The CHO-K1 cells (ATCC, USA) are kept in culture in McCoy's 5A medium supplemented with 10% fetal calf serum, 2 mM of L-glutamine and a mixture of penicillin-streptomycin (100 U/ml: 10 μg/ml). The culture is incubated at 37° C. under an atmosphere enriched in CO2 (5%), and subcultured every two days.
The cells are transferred into 96-well plates (25000 cells/mL) in whole McCoy's 5A medium, and maintained for 24 hours at 37° C. under a humid atmosphere enriched in CO2 (5%). Increasing concentrations of test products are added to the wells in double tests and 8 growth controls containing the cells in the medium alone are included in each series of tests. After 24 hours at 37° C. (5% CO2), the culture medium is removed, the cells are rinsed in phosphate buffer (PBS) and 50 μL of PBS containing 10% of reagent WST1 are added to each well. After 20 minutes of incubation at 37° C., the results are read by spectrophotometry at 450 nm.
The results are expressed in dose-response relationships, modeled by nonlinear regression analysis using the TableCurve software. The 50% inhibitory concentration (IC50) represents the concentration of product that is capable of reducing the cell viability by 50%.

[8] = tested on: P. aeruginosa Animal (1051575); test: MIC determination, P. aeruginosa animal (1051575); format: cell-based; details: Pseudomonas aeruginosa; Gram-negative; Mueller-Hinton medium, 24 h at 37° C.
Protocol: as §1, §2, §3, §4, §5, §6, §7, §8

[9] = tested on: S. aureus Animal (340); test: MIC determination, S. aureus animal (340); format: cell-based; details: Staphylococcus aureus; Gram-positive; Mueller-Hinton medium, 24 h at 37° C.
Protocol: as §1, §2, §3, §4, §5, §6, §7, §8

[10] = tested on: P. aeruginosa Human ATCC 27853; test: MIC determination, P. aeruginosa human ATCC 27853; format: cell-based; details: Pseudomonas aeruginosa, ATCC27853; Gram-negative; Mueller-Hinton medium, 24 h at 37° C.
Protocol: as §1, §2, §3, §4, §5, §6, §7, §8

[11] = tested on: P. aeruginosa (1051575); test: Potentiation of chloramphenicol activity (combination MIC); format: cell-based, Pseudomonas aeruginosa; details: chloramphenicol 2 μg/mL; concentration of compound required to restore antibiotic activity
Protocol: This method requires the use of a 96-well plate: 100 μL of a liquid culture medium are placed in each well and then seeded with the microbial suspension prepared previously. The required volume to be seeded is calculated for an OD of 0.01, which corresponds to about 5×10^6 bacteria in each well. In this plate, the first line corresponds to a negative control (200 μL of sterile culture medium in each well), the second line corresponds to a positive control (100 μL of sterile culture medium+100 μL of the bacterial suspension), and the third line contains 192 μL of culture medium; 8 μL of compound of formula (I) to be tested are placed in each well. Thereafter, a cascade dilution is performed from this line. […] 92 μL of bacterial suspension are then added to lines 3 to 8. The results are read (the determination of the MIC (2 μg/mL of doxycycline) in the presence of X g/mL of compound of formula (I)) after 24 hours of incubation at 37° C. under a humid atmosphere. After 24 hours of incubation at 37° C., 40 μL of nitro tetrazolium iodide are added to each well to reveal the presence of live bacteria by staining the medium pink.
The procedure is identical to that indicated in Example 5 above. […]
(§9) The results are given in table V. They indicate the concentration of compound of formula (I) required to be able to restore the activity of the antibiotic under consideration.

[12] = tested on: P. aeruginosa (1051575); test: Potentiation of erythromycin activity (combination MIC); format: cell-based, Pseudomonas aeruginosa; details: erythromycin 2 μg/mL; concentration of compound required to restore antibiotic activity
Protocol: This method requires the use of a 96-well plate: 100 μL of a liquid culture medium are placed in each well and then seeded with the microbial suspension prepared previously. The required volume to be seeded is calculated for an OD of 0.01, which corresponds to about 5×10^6 bacteria in each well. In this plate, the first line corresponds to a negative control (200 μL of sterile culture medium in each well), the second line corresponds to a positive control (100 μL of sterile culture medium+100 μL of the bacterial suspension), and the third line contains 192 μL of culture medium; 8 μL of compound of formula (I) to be tested are placed in each well. Thereafter, a cascade dilution is performed from this line. L of a doxycycline solution (1 mg dissolved in 20 mL) are then added to each well of lines 3 to 8 to obtain a final antibiotic concentration of 2 μg/mL. 92 μL of bacterial suspension are then added to lines 3 to 8. The results are read (the determination of the MIC (2 μg/mL of doxycycline) in the presence of X g/mL of compound of formula (I)) after 24 hours of incubation at 37° C. under a humid atmosphere. After 24 hours of incubation at 37° C., 40 μL of nitro tetrazolium iodide are added to each well to reveal the presence of live bacteria by staining the medium pink.
The procedure is identical to that indicated in Example 5 above. 8 μL of an antibiotic solution under consideration (1 mg dissolved in 20 mL) are added to obtain a final antibiotic concentration of 2 μg/mL instead of 8 μL of a doxycycline solution.
as §9

| Structure (SMILES) | MIC [1] | MIC [2] | MIC [3] | MIC [4] | MIC [5] | MIC - P. aeruginosa (1051575): content of compound of formula (I) to restore the doxycycline activity (at 2 μg/mL) [6] | IC50 [7] | MIC [8] | MIC [9] | MIC [10] | MIC P. aeruginosa (1051575) compound + chloramphenicol [11] | MIC P. aeruginosa (1051575) compound + erythromycin [12] | synergism when administered with doxycycline ([6]; doxycycline at 2 μg/mL) |
| --- | --- | --- | --- | --- | --- | --- | --- | --- | --- | --- | --- | --- | --- |
| CC(C)NC(=O)CC[C@@H](C)[C@H]1CCC2C3C(C[C@H](O)[C@@]21C)[C@@]1(C)CC[C@H](NCCCN(CCCN)CCCN)CC1C[C@H]3O (stereo partly drawn) [(43), 3β-(tris(3-aminopropyl)amine)-N-isopropylcholamide] | 60 µg/mL (≈ 96.8 µM) | 16 µg/mL (≈ 25.8 µM) | 8 µg/mL (≈ 12.9 µM) | 125 µg/mL (≈ 202 µM) | 60 µg/mL (≈ 96.8 µM) | 1 µg/mL | 38 µg/mL (≈ 61.3 µM) | 60 µg/mL (≈ 96.8 µM) | 16 µg/mL (≈ 25.8 µM) | 125 µg/mL (≈ 202 µM) | 4 µg/mL | 30 µg/mL | – |
| CC(C)NC(=O)CC[C@@H](C)[C@H]1CCC2C3C(CC[C@@]21C)[C@@]1(C)CC[C@H](NCCN(CCN)CCN)CC1C[C@H]3O (stereo partly drawn) [(45), 3β-(tris(2-aminoethyl)amine)-N-isopropylchenodeoxycholamide] | 14 µg/mL (≈ 24.9 µM) | 7 µg/mL (≈ 12.5 µM) | 2 µg/mL (≈ 3.56 µM) | 110 µg/mL (≈ 196 µM) | 14 µg/mL (≈ 24.9 µM) | 7 µg/mL | 60 µg/mL (≈ 107 µM) | 28 µg/mL (≈ 49.8 µM) | 4 µg/mL (≈ 7.12 µM) | 110 µg/mL (≈ 196 µM) | 7 µg/mL | 28 µg/mL | – |
| CNC(=O)CC[C@@H](C)[C@H]1CCC2C3C(CC[C@@]21C)[C@@]1(C)CC[C@H](NCCCNCCCCNCCCN)CC1C[C@H]3O (stereo partly drawn) [Compound (33)] | 7 µg/mL (≈ 11.9 µM) | 3.5 µg/mL (≈ 5.93 µM) | 0.8 µg/mL (≈ 1.36 µM) | 14 µg/mL (≈ 23.7 µM) | 14 µg/mL (≈ 23.7 µM) | 1 µg/mL | 35 µg/mL (≈ 59.3 µM) | 2 µg/mL (≈ 3.39 µM) | 1 µg/mL (≈ 1.7 µM) | 7 µg/mL (≈ 11.9 µM) | – | – | – |
| CC(C)NC(=O)CC[C@@H](C)[C@H]1CCC2C3CCC4C[C@@H](NCCCNCCCCNCCCN)CC[C@]4(C)C3CC[C@@]21C (stereo partly drawn) [Compound (36), 3β-spermino-N-isopropyllithocholamide] | 15 µg/mL (≈ 24.9 µM) | 3.75 µg/mL (≈ 6.23 µM) | 1.87 µg/mL (≈ 3.11 µM) | 7.5 µg/mL (≈ 12.5 µM) | 7.5 µg/mL (≈ 12.5 µM) | 0.5 µg/mL | 36 µg/mL (≈ 59.8 µM) | 30 µg/mL (≈ 49.8 µM) | 3.75 µg/mL (≈ 6.23 µM) | 15 µg/mL (≈ 24.9 µM) | – | – | noteworthy synergism |
